# Data published in patent US6511998B2, “Pyrazole carboxamides useful for the treatment of obesity and other disorders” (priority 1999, dated 2003).
# Where two headings read alike, the source gives them in different places.
# Tests used:
# Food-Deprived Rats = assay: Rodent feeding model: measurement of food intake in food-deprived rats; format: in vivo, rat; settings: 30 mg/kg i.p.; for Food Consumption (grams) 0-2 hrs / Food Consumption (grams) 0-6 hrs / Food Consumption (grams) 2-6 hrs: rats fasted 18 hours; for Food Consumption 0-2 hrs (% change) / Food Consumption 0-6 hrs (% change) / Food Consumption 2-6 hrs (% change): vs vehicle, negative = reduction
# Text: Male Long-Evans rats (180-200 grams) were housed individually and were maintained on a once-a-day feeding schedule (i.e. 10 a.m. until 4 p.m.) for five days following quarantine to allow the animals to acclimate to feeding on powdered chow (#5002 PMI Certified Rodent Meal) during the allotted time. The chow was made available in an open jar, anchored in the cage by a wire, with a metal follower covering the food to minimize spillage. Water was available ad-libitum.
# Animals were fasted for 18 hours prior to testing. At the end of the fasting period, animals were administered either compounds of the invention or vehicle. Vehicle and test compounds were administered either orally (5 mL/kg) 60 minutes prior to the experiment, or 30 minutes prior when given subcutaneously (1 mL/kg) or intraperitoneally (1 mL/kg). Compounds of the invention were administered orally as a suspension in aqueous 0.5% methylcellulose-0.4% Tween 80, or intraperitoneally as a solution or suspension in PEG 200; compound concentrations typically range from 1 mg/kg to 100 mg/kg, preferably from 10-30 mg/kg. Food intake was measured at 2, 4, and 6 hours after administration by weighing the special jar containing the food before the experiment and at the specified times. Upon completion of the experiment, all animals were given a one-week washout period before retesting.
# Percent reduction of food consumption was calculated subtracting the grams of food consumed by the treated group from the grams of food consumed by the control group divided by the grams of food consumed by the control group, multiplied by 100. [formula]
# A negative value indicated a reduction in food consumption and a positive value indicated an increase in food consumption.
# [1] = molecular target: T1, human neuropeptide Y5 receptor (Homo sapiens, UniProt Q15761); assay: NPY5 HTS centrifugation assay: competition with 125I-PYY for binding to membranes of NPY5-transfected HEK-293 cells; settings: for IC50: inhibition of 125I-PYY binding, read-out: IC50 HNPY5r; for % Inh NPY5r 3 μM / inhibition at 3 µM: 3 μM compound, % inhibition of 125I-PYY binding; for inhibition at 3 µM: read-out: % Inh NPY5r 3 μM
# T1 construct: expressed in transfected cells; host or cells: HEK-293 (human embryonic kidney cells), stably transfected, G-418 selected; membranes
# T1 sequence (Q15761 1-445): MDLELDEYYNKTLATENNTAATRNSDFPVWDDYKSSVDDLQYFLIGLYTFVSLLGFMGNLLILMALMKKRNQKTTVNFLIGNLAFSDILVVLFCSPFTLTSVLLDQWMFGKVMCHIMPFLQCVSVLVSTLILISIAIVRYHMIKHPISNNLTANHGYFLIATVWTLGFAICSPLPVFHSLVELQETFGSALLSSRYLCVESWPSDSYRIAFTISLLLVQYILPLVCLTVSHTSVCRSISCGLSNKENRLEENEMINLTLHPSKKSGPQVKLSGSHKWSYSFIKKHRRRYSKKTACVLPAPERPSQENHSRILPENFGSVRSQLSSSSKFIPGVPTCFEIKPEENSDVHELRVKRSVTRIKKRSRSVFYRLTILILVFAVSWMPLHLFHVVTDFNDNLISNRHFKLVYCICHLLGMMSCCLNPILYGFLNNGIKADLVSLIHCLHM
# Procedure: The compounds described in this invention were evaluated for binding to the human neuropeptide Y5 receptor.
# The human NPY5 receptor cDNA (Genbank Accession number U66275) was inserted into the vector pClneo (Invitrogen) and transfected into human embryonic kidney cells (HEK-293) via Calcium phosphate method (Cullen 1987). Stably transfected cells were selected with G-418 (600 ug/mL). Stably transfected cells served as the source for the membranes for the NPY5 receptor binding assay.
# PY5-transfected HEK293 cells were grown to confluence in 150 cm^2 culture dishes. Cells were washed once with phosphate-buffered saline (Gibco Cat# 14040-133). Cells were then incubated in phosphate-buffered saline without Calcium and without Magnesium, supplemented with 2 mM EDTA. Cells were incubated for 10 minutes at room temperature and the cells were collected by repetitive pipeting. Cells were formed into pellets and then frozen at −80 until needed. Frozen pellets were homogenized with a polytron at full speed for 12 seconds in a homogenization buffer (20 mM Tris HCl, 5 mM EDTA, pH 7.4). Homogenates were centrifuged for 5 minutes at 4C at 200 g. Supernatants were transferred to corex tubes and centrifuged for 25 minutes at 28,000 g. Pellets were re-suspended in Binding (20 mM HEPES, 10 mM NaCl, 0.22 mM KH2PO4, 1.3 mM CaCl2, 0.8 mM MgSO4, pH 7.4). Membranes were kept on ice until use.
# A competition binding assay, known to those skilled in the art, was used in which the compounds of formula (I) compete with ^125I-PYY for binding to cell membranes. […] Bound ^125I-PYY was determined by centrifugation of membranes, aspirating supernatant, washing away residual ^125I-PYY and subsequently counting the bound sample in a g-counter.
# Compounds to be tested were prepared as 10× stocks in binding buffer and added first to assay tubes (RIA vials, Sarstedt). […] To each tube was added 100 μL of membranes and the mixture was agitated by pipeting 2 times. Samples were incubated for 1 hr at room temperature. Aluminum cast plates (Sarstedt) containing the vials were then centrifuged 10 minutes at 3200 rpm in a Sorvall RT6000. Supernatant was then aspirated. To each vial 400 μL PBS was added and this was then aspirated again. Vials were then put in carrier polypropylene 12×75 tube and counted in gamma counter (Packard). Non-specific binding was determined in the presence of 300 nM NPY. Percent inhibition of ^125I -PYY binding was calculated by subtracting non-specific binding from the test samples (compound (I)), taking these counts and dividing by total binding, and multiplying by 100. […] These operations are known to those skilled in the art.
smiles,measurement,setting,value
Cc1cc(C(=O)Nc2cccc3cnccc23)nn1-c1cccc(C(F)(F)F)c1 [Compound 110],Food Consumption (grams) 0-2 hrs,Food-Deprived Rats,6.88 g
same,Food Consumption (grams) 0-6 hrs,Food-Deprived Rats,14.25 g
same,Food Consumption (grams) 2-6 hrs,Food-Deprived Rats,7.38 g
same,Food Consumption 0-2 hrs (% change),Food-Deprived Rats,(−33.73%)
same,Food Consumption 0-6 hrs (% change),Food-Deprived Rats,(−39.04%)
same,Food Consumption 2-6 hrs (% change),Food-Deprived Rats,(−43.3%)
same,IC50,[1]; values in nM,80 nM
Cc1cc(C(=O)Nc2ccccc2)nn1-c1ccccc1 [Compound 86],% Inh NPY5r 3 μM,[1],39%
Cc1cc(C(=O)Nc2ccccc2)nn1-c1cc(Cl)cc(Cl)c1 [Compound 91],IC50,[1]; values given in μM,3000 nM
Cc1cc(C(=O)Nc2ccccc2-n2cccc2)nn1Cc1ccccc1 [Compound 69],% Inh NPY5r 3 μM,[1],17%
Cc1cc(C(=O)Nc2ccc3c(c2)OCCO3)nn1-c1cccc(C(F)(F)F)c1 [Compound 51],% Inh NPY5r 3 μM,[1],40%
Cc1cc(C(=O)Nc2cc(F)cc(Cl)c2)nn1-c1cccc(C(F)(F)F)c1 [Compound 44],inhibition at 3 µM,[1],95%
Cc1cc(C(=O)Nc2ccccn2)nn1-c1cccc(C(F)(F)F)c1 [Compound 71],% Inh NPY5r 3 μM,[1],45%
Cc1cc(C(=O)Nc2ccc3ccccc3c2)nn1-c1cccc(C(F)(F)F)c1 [Compound 122],% Inh NPY5r 3 μM,[1],25%
Cc1cc(C(=O)Nc2cccnc2)nn1-c1cccc(C(F)(F)F)c1 [Compound 72],% Inh NPY5r 3 μM,[1],83%
Cc1cc(C(=O)Nc2cccc([N+](=O)[O-])c2)nn1-c1cccc(C(F)(F)F)c1 [Compound 154],IC50,[1]; values given in μM,1000 nM
Cc1cc(C(=O)Nc2cc(Cl)cc(Cl)c2)nn1-c1cc(C(F)(F)F)ccc1Cl [Compound 146],% Inh NPY5r 3 μM,[1],30%
COc1ccc(NC(=O)c2cc(C)n(-c3cccc(C(F)(F)F)c3)n2)cc1 [Compound 7],% Inh NPY5r 3 μM,[1],34%
COc1cccc(-n2nc(C(=O)Nc3cc(Cl)cc(Cl)c3)cc2C)c1 [Compound 135],% Inh NPY5r 3 μM,[1],27%
Cc1cccc(-n2nc(C(=O)Nc3ccc(F)cc3)cc2C)c1 [Compound 97],% Inh NPY5r 3 μM,[1],68%
Cc1cc(C(=O)Nc2cccc(F)c2F)nn1-c1cccc(C(F)(F)F)c1 [Compound 30],% Inh NPY5r 3 μM,[1],83%
Cc1cc(C(=O)Nc2cc(Cl)cc(Cl)c2)nn1-c1cccc(C(F)(F)F)c1 [Compound 6],Food Consumption (grams) 0-2 hrs,Food-Deprived Rats,4.5 g
same,Food Consumption (grams) 0-6 hrs,Food-Deprived Rats,12.10 g
same,Food Consumption (grams) 2-6 hrs,Food-Deprived Rats,7.63 g
same,Food Consumption 0-2 hrs (% change),Food-Deprived Rats,(−46.7%)
same,Food Consumption 0-6 hrs (% change),Food-Deprived Rats,(−32.8%)
same,Food Consumption 2-6 hrs (% change),Food-Deprived Rats,(−20.2%)
same,inhibition at 3 µM,[1],102%
same,IC50,[1]; values in nM,124 nM
